{"source": "ChEMBL document CHEMBL3044700", "about": "“Molecular modeling and protection against pentylenetetrazole-induced seizure of new 1,4-dihydropyridines containing 5(4)-imidazolyl substituent” (Med Chem Res, 2012)", "note": "Calls of active or inactive are those of the source. The calls are words filed in the database; no cut-off is given here."}
{"tested_on": "Mus musculus", "assay": "Anticonvulsant activity in Mus musculus NMRI (mouse) assessed as protection against pentylenetetrazole-induced seizures at 5 to 20 mg/kg, ip administered 30 min prior to pentylenetetrazole induction relative to vehicle-treated control", "type": "functional, organism-based"}
{"smiles": "CCc1nc(C2C(C(=O)OCc3ccccc3)=C(C)NC(C)=C2C(=O)OCc2ccccc2)c(Cl)[nH]1", "Activity": "Active"}
{"smiles": "CC1=C(C(=O)OCCCc2ccccc2)C(c2nc[nH]c2Cl)C(C(=O)OCCCc2ccccc2)=C(C)N1", "Activity": "Active"}
{"smiles": "CC1=C(C(=O)OCCc2ccccc2)C(c2nc[nH]c2Cl)C(C(=O)OCCc2ccccc2)=C(C)N1", "Activity": "Active"}
{"smiles": "CCc1nc(C2C(C(=O)OC)=C(C)NC(C)=C2C(=O)OCCc2ccccc2)c(Cl)[nH]1", "note": "(stereo not drawn)", "Activity": "Active"}
{"smiles": "CC1=C(C(=O)OCc2ccccc2)C(c2nc[nH]c2Cl)C(C(=O)OCc2ccccc2)=C(C)N1", "Activity": "Active"}
{"smiles": "CCc1nc(C2C(C(=O)OCCc3ccccc3)=C(C)NC(C)=C2C(=O)OCCc2ccccc2)c(Cl)[nH]1", "Activity": "Active"}
{"smiles": "CCOC(=O)C1=C(C)NC(C)=C(C(=O)OCCc2ccccc2)C1c1nc(CC)[nH]c1Cl", "note": "(stereo not drawn)", "Activity": "Active"}
{"tested_on": "Mus musculus", "assay": "Anticonvulsant activity in Mus musculus NMRI (mouse) assessed as protection against pentylenetetrazole-induced seizures at 20 mg/kg, ip administered 30 min prior to pentylenetetrazole induction relative to vehicle-treated control", "type": "functional, organism-based", "set-up": "dose 20 mg/kg"}
{"smiles": "COC(=O)C1=C(C)NC(C)=C(C(=O)OC)C1c1ccccc1[N+](=O)[O-]", "Activity": "Active"}
